The target in one assay is T1, human GcgR (Homo sapiens, UniProt P47871).
T1 construct: expressed in transfected cells; crude membranes
The assay is described as follows: [125I]-Glucagon binding, SPA with WGA beads, 0.1% bacitracin. Conditions: geometric mean, read-out: hGcgR Ki. The procedure, abridged:
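SPA competition binding with WGA beads on crude membranes from HEK293 cells stably expressing hGcgR. Buffer: 25 mM HEPES pH 7.4, 2.5 mM CaCl2, 1 mM MgCl2, 0.1% bacitracin, 0.003% Tween-20; 10-point 3-fold dilutions, NSB with 1 μM Gcg.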

A further assay has as its target T2, human GIPR (Homo sapiens, UniProt P48546).
T2 construct: expressed in transfected cells; crude membranes
T2 sequence (P48546 22-466): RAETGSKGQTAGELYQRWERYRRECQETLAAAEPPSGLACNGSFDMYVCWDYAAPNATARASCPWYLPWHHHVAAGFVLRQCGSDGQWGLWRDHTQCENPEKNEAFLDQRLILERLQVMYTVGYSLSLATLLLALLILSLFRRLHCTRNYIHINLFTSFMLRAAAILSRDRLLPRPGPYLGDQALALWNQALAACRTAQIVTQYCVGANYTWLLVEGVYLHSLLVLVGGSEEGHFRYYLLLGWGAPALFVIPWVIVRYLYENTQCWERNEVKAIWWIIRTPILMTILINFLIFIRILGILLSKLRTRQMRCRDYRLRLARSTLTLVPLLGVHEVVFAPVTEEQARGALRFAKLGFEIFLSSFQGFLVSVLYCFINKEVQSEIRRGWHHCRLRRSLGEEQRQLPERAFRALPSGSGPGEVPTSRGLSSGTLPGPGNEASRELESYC
Nature of the assay: [125I]-GIP binding, SPA with WGA beads, 0.1% bacitracin. Conditions: geometric mean, read-out: hGIPR Ki. The procedure, abridged: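 Ki values are geometric means (SEM, n independent days), derived from four-parameter nonlinear regression of IC50. Membranes came from hGIPR-expressing CHO cells.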

Molecules are shown by their SMILES. *1 amine or outer side, *2 acyl side, *3 side chain or, on linkers, in order; H or OH if unused. Where a SMILES comes first, the peptide text is derived from it. Side-chain parts run from the residue outwards. [ ]: non-standard residue; d: D form. The star is where a group is joined. C20 diacid = O=C(O)CCCCCCCCCCCCCCCCCCC(=O)*; αMePhe(2-F) = C[C@](N)(Cc1ccccc1F)C(=O)O; γGlu = O=C(O)[C@H](CCC(=O)[*:2])N[*:1]; αMeF = C[C@](N)(Cc1ccccc1)C(=O)O; 4Pal = N[C@@H](Cc1ccncc1)C(=O)O; AEEA = NCCOCCOCC(=O)O; Aib = CC(C)(N)C(=O)O

T1 sequence (P47871 26-477): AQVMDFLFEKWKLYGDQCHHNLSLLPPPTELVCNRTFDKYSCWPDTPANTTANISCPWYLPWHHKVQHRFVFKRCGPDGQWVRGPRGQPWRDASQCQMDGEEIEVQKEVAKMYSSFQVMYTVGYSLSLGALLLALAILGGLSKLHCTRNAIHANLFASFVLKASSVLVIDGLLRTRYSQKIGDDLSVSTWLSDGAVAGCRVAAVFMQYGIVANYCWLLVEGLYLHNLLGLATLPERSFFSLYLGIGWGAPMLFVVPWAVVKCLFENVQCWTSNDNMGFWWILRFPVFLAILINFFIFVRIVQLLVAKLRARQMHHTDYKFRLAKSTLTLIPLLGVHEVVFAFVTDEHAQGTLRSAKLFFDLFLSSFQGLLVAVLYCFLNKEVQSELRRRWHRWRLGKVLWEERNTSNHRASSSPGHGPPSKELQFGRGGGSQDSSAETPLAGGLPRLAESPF

On to `CC[C@H](C)[C@H](NC(=O)[C@H](CO)NC(=O)[C@H](Cc1ccc(O)cc1)NC(=O)[C@H](CC(=O)O)NC(=O)[C@H](CO)NC(=O)[C@@H](NC(=O)[C@](C)(Cc1ccccc1F)NC(=O)[C@@H](NC(=O)CNC(=O)[C@H](CCC(=O)O)NC(=O)C(C)(C)NC(=O)[C@@H](N)Cc1ccc(O)cc1)[C@@H](C)O)[C@@H](C)CC)C(=O)N[C@@H](C)C(=O)N[C@@H](CC(C)C)C(=O)N[C@@H](CC(=O)O)C(=O)N[C@@H](CCCCN)C(=O)N[C@@H](CCCCNC(=O)COCCOCCNC(=O)COCCOCCNC(=O)CC[C@H](NC(=O)CCCCCCCCCCCCCCCCCCC(=O)O)C(=O)O)C(=O)N[C@@H](Cc1c[nH]cn1)C(=O)N[C@@H](CCC(N)=O)C(=O)NC(C)(C)C(=O)N[C@@H](CC(=O)O)C(=O)N[C@@H](Cc1ccccc1)C(=O)N[C@H](C(=O)N[C@@H](CCC(=O)O)C(=O)N[C@@H](Cc1ccncc1)C(=O)N[C@@H](CC(C)C)C(=O)N[C@@H](CC(C)C)C(=O)N[C@@H](CCC(=O)O)C(=O)N[C@H](C(=O)NCC(=O)N1CCC[C@H]1C(=O)N[C@@H](CO)C(=O)N[C@@H](CO)C(=O)NCC(=O)N[C@@H](C)C(=O)N1CCC[C@H]1C(=O)N1CCC[C@H]1C(=O)N1CCC[C@H]1C(=O)N[C@@H](CO)C(N)=O)[C@@H](C)O)C(C)C` [Example 38] (H-Y[Aib]EGT[αMePhe(2-F)]ISDYSIALDKK([AEEA-AEEA-γGlu-C20 diacid])HQ[Aib]DFVE[4Pal]LLETGPSSGAPPPS-NH2), for which the Ki was 182 nM on human GcgR and 0.0588 nM on human GIPR.

On to `CC[C@H](C)[C@H](NC(=O)[C@H](CO)NC(=O)[C@H](Cc1ccc(O)cc1)NC(=O)[C@H](CC(=O)O)NC(=O)[C@H](CO)NC(=O)[C@@H](NC(=O)[C@](C)(Cc1ccccc1F)NC(=O)[C@@H](NC(=O)CNC(=O)[C@H](CCC(=O)O)NC(=O)C(C)(C)NC(=O)[C@@H](N)Cc1ccc(O)cc1)[C@@H](C)O)[C@@H](C)CC)C(=O)N[C@@H](C)C(=O)N[C@@H](CC(C)C)C(=O)N[C@@H](CC(=O)O)C(=O)N[C@@H](CCCCN)C(=O)N[C@@H](CCCCNC(=O)COCCOCCNC(=O)COCCOCCNC(=O)CC[C@H](NC(=O)CCCCCCCCCCCCCCCCCCC(=O)O)C(=O)O)C(=O)N[C@@H](Cc1c[nH]cn1)C(=O)N[C@@H](CCC(N)=O)C(=O)NC(C)(C)C(=O)N[C@@H](CC(=O)O)C(=O)N[C@@H](Cc1ccccc1)C(=O)N[C@H](C(=O)N[C@@H](CCC(=O)O)C(=O)N[C@@H](Cc1ccncc1)C(=O)N[C@@H](CC(C)C)C(=O)N[C@@H](CC(C)C)C(=O)N[C@@H](CCC(=O)O)C(=O)NCC(=O)NCC(=O)N1CCC[C@H]1C(=O)N[C@@H](CO)C(=O)N[C@@H](CO)C(=O)NCC(=O)N[C@@H](C)C(=O)N1CCC[C@H]1C(=O)N1CCC[C@H]1C(=O)N1CCC[C@H]1C(=O)N[C@@H](CO)C(N)=O)C(C)C` [Example 39] (H-Y[Aib]EGT[αMePhe(2-F)]ISDYSIALDKK([AEEA-AEEA-γGlu-C20 diacid])HQ[Aib]DFVE[4Pal]LLEGGPSSGAPPPS-NH2), for which the Ki on human GcgR was determined as 76 nM; on human GIPR, 0.0444 nM.

On to `CC[C@H](C)[C@H](NC(=O)[C@H](CO)NC(=O)[C@H](Cc1ccc(O)cc1)NC(=O)[C@H](CC(=O)O)NC(=O)[C@H](CO)NC(=O)[C@@H](NC(=O)[C@](C)(Cc1ccccc1F)NC(=O)[C@@H](NC(=O)CNC(=O)[C@H](CCC(=O)O)NC(=O)C(C)(C)NC(=O)[C@@H](N)Cc1ccc(O)cc1)[C@@H](C)O)[C@@H](C)CC)C(=O)N[C@@H](C)C(=O)N[C@@H](CC(C)C)C(=O)N[C@@H](CC(=O)O)C(=O)N[C@@H](CCCCN)C(=O)N[C@@H](CCCCNC(=O)COCCOCCNC(=O)COCCOCCNC(=O)CC[C@H](NC(=O)CCCCCCCCCCCCCCCCCCC(=O)O)C(=O)O)C(=O)N[C@@H](Cc1c[nH]cn1)C(=O)N[C@@H](CCC(N)=O)C(=O)NC(C)(C)C(=O)N[C@@H](CC(=O)O)C(=O)N[C@@H](Cc1ccccc1)C(=O)N[C@H](C(=O)N[C@@H](CCC(=O)O)C(=O)N[C@@H](Cc1c[nH]c2ccccc12)C(=O)N[C@@H](CC(C)C)C(=O)N[C@@H](CC(C)C)C(=O)N[C@@H](CCC(=O)O)C(=O)N[C@H](C(=O)NCC(=O)N1CCC[C@H]1C(=O)N[C@@H](CO)C(=O)N[C@@H](CO)C(=O)NCC(=O)N[C@@H](C)C(=O)N1CCC[C@H]1C(=O)N1CCC[C@H]1C(=O)N1CCC[C@H]1C(=O)N[C@@H](CO)C(N)=O)[C@@H](C)O)C(C)C` [Example 40] (H-Y[Aib]EGT[αMePhe(2-F)]ISDYSIALDKK([AEEA-AEEA-γGlu-C20 diacid])HQ[Aib]DFVEWLLETGPSSGAPPPS-NH2), for which the Ki came to 50.9 nM on human GcgR and 0.0594 nM on human GIPR.

For the compound `CC[C@H](C)[C@H](NC(=O)[C@H](CO)NC(=O)[C@H](Cc1ccc(O)cc1)NC(=O)[C@H](CC(=O)O)NC(=O)[C@H](CO)NC(=O)[C@@H](NC(=O)[C@](C)(Cc1ccccc1)NC(=O)[C@@H](NC(=O)CNC(=O)[C@H](CCC(=O)O)NC(=O)C(C)(C)NC(=O)[C@@H](N)Cc1ccc(O)cc1)[C@@H](C)O)[C@@H](C)CC)C(=O)N[C@@H](C)C(=O)N[C@@H](CC(C)C)C(=O)N[C@@H](CC(=O)O)C(=O)N[C@@H](CCCCN)C(=O)N[C@@H](CCCCNC(=O)COCCOCCNC(=O)COCCOCCNC(=O)CC[C@H](NC(=O)CCCCCCCCCCCCCCCCCCC(=O)O)C(=O)O)C(=O)N[C@@H](Cc1c[nH]cn1)C(=O)N[C@@H](CCC(N)=O)C(=O)NC(C)(C)C(=O)N[C@@H](CC(=O)O)C(=O)N[C@@H](Cc1ccccc1)C(=O)N[C@H](C(=O)N[C@@H](CCC(=O)O)C(=O)N[C@@H](Cc1ccncc1)C(=O)N[C@@H](CC(C)C)C(=O)N[C@@H](CC(C)C)C(=O)N[C@@H](CCC(=O)O)C(=O)N[C@H](C(=O)NCC(=O)N1CCC[C@H]1C(=O)N[C@@H](CO)C(=O)N[C@@H](CO)C(=O)NCC(=O)N[C@@H](C)C(=O)N1CCC[C@H]1C(=O)N1CCC[C@H]1C(=O)N1CCC[C@H]1C(=O)N[C@@H](CO)C(N)=O)[C@@H](C)O)C(C)C` [Example 41] (H-Y[Aib]EGT[αMeF]ISDYSIALDKK([AEEA-AEEA-γGlu-C20 diacid])HQ[Aib]DFVE[4Pal]LLETGPSSGAPPPS-NH2), the inhibition constant Ki was determined as 758 nM on human GcgR and 0.143 nM at human GIPR.

In the case of `CC[C@H](C)[C@H](NC(=O)[C@H](CO)NC(=O)[C@H](Cc1ccc(O)cc1)NC(=O)[C@H](CC(=O)O)NC(=O)[C@H](CO)NC(=O)[C@@H](NC(=O)[C@](C)(Cc1ccccc1)NC(=O)[C@@H](NC(=O)CNC(=O)[C@H](CCC(=O)O)NC(=O)C(C)(C)NC(=O)[C@@H](N)Cc1ccc(O)cc1)[C@@H](C)O)[C@@H](C)CC)C(=O)N[C@@H](C)C(=O)N[C@@H](CC(C)C)C(=O)N[C@@H](CC(=O)O)C(=O)N[C@@H](CCCCN)C(=O)N[C@@H](CCCCNC(=O)COCCOCCNC(=O)COCCOCCNC(=O)CC[C@H](NC(=O)CCCCCCCCCCCCCCCCCCC(=O)O)C(=O)O)C(=O)N[C@@H](Cc1c[nH]cn1)C(=O)N[C@@H](CCC(N)=O)C(=O)NC(C)(C)C(=O)N[C@@H](CC(=O)O)C(=O)N[C@@H](Cc1ccccc1)C(=O)N[C@H](C(=O)N[C@@H](CCC(=O)O)C(=O)N[C@@H](Cc1ccncc1)C(=O)N[C@@H](CC(C)C)C(=O)N[C@@H](CC(C)C)C(=O)N[C@@H](CCC(=O)O)C(=O)N[C@@H](CCC(N)=O)C(=O)NCC(=O)N1CCC[C@H]1C(=O)N[C@@H](CO)C(=O)N[C@@H](CO)C(=O)NCC(=O)N[C@@H](C)C(=O)N1CCC[C@H]1C(=O)N1CCC[C@H]1C(=O)N1CCC[C@H]1C(=O)N[C@@H](CO)C(N)=O)C(C)C` [Example 42] (H-Y[Aib]EGT[αMeF]ISDYSIALDKK([AEEA-AEEA-γGlu-C20 diacid])HQ[Aib]DFVE[4Pal]LLEQGPSSGAPPPS-NH2), the Ki on human GcgR was determined as 99.1 nM; at human GIPR, 0.0392 nM.

Regarding `CC[C@H](C)[C@H](NC(=O)[C@H](CO)NC(=O)[C@H](Cc1ccc(O)cc1)NC(=O)[C@H](CC(=O)O)NC(=O)[C@H](CO)NC(=O)[C@@H](NC(=O)[C@](C)(Cc1ccccc1)NC(=O)[C@@H](NC(=O)CNC(=O)[C@H](CCC(=O)O)NC(=O)C(C)(C)NC(=O)[C@@H](N)Cc1ccc(O)cc1)[C@@H](C)O)[C@@H](C)CC)C(=O)N[C@@H](C)C(=O)N[C@@H](CC(C)C)C(=O)N[C@@H](CC(=O)O)C(=O)N[C@@H](CCCCN)C(=O)N[C@@H](CCCCNC(=O)COCCOCCNC(=O)COCCOCCNC(=O)CC[C@H](NC(=O)CCCCCCCCCCCCCCCCCCC(=O)O)C(=O)O)C(=O)N[C@@H](Cc1c[nH]cn1)C(=O)N[C@@H](CCC(N)=O)C(=O)NC(C)(C)C(=O)N[C@@H](CC(=O)O)C(=O)N[C@@H](Cc1ccccc1)C(=O)N[C@H](C(=O)N[C@@H](CCC(=O)O)C(=O)N[C@@H](Cc1ccncc1)C(=O)N[C@@H](CC(C)C)C(=O)N[C@@H](CC(C)C)C(=O)N[C@@H](CCC(=O)O)C(=O)N[C@@H](C)C(=O)NCC(=O)N1CCC[C@H]1C(=O)N[C@@H](CO)C(=O)N[C@@H](CO)C(=O)NCC(=O)N[C@@H](C)C(=O)N1CCC[C@H]1C(=O)N1CCC[C@H]1C(=O)N1CCC[C@H]1C(=O)N[C@@H](CO)C(N)=O)C(C)C` [Example 43] (H-Y[Aib]EGT[αMeF]ISDYSIALDKK([AEEA-AEEA-γGlu-C20 diacid])HQ[Aib]DFVE[4Pal]LLEAGPSSGAPPPS-NH2), the Ki at human GcgR was found to be 285 nM; on human GIPR, 0.0366 nM.

Source of the values: patent US12723063B2, “GIPR-agonist compounds” (Eli Lilly and Company, priority 2019, dated 2026).
